Source: patent US7189751B2, “Oxa(thia)zolidine compounds, process for preparation thereof and anti-inflammatory agents” (Nippon Soda Co., Ltd., priority 2001, dated 2007)

Assays:
[1] = system: acetic acid induced writhes; experiment: Acetic acid writhing; type: in vivo, mouse
Protocol: Pharmacological Test Example 4: Acetic Acid Wirthing
This test was carried out referring to the method of Inoue, K., Motonaga, A. & Nishimura, T (Arzneimittel Forshung/Drug Research, 41 (1): 235–239 (1991)). More specifically, 7.5 mL/kg of 0.9% acetic acid solution was injected intraperitoneally into an ICR-strain male mouse (5 to 7 weeks old), and the induced writhes (characteristic behaviors of convulsive contracting the abdomen, twisting the body and/or extending the legs) were observed. Number of writhes of each mouse was measured during 10 to 20 min. period after acetic acid administration. […] The analgesic activity of the compounds according to the present invention was evaluated on the basis of the degree of inhibiting the number writhes by the administration of the compounds. As the positive control, indomethacin or aspirin was administrated. The analgesic activity of the compounds according to the present invention measured in this test were exemplified in Table 7.

[2] = system: Mouse Ear Edema Induced by TPA; experiment: Mouse ear edema induced by TPA; type: in vivo; conditions: for Ear Edema Inhibition (%): topical, ICR male mouse, 6 hours after TPA
Protocol: Pharmacological Test Example 2: Mouse Ear Edema Induced by TPA
This test was carried out referring to the method of Carlson, R. P. et al. (Agents and Actions, 17(2): 197–204 (1985).) and the method of Chang, J. (European Journal of Pharmacology, 142: 197–205 (1987).). More specifically, 5 μg/20 μL of TPA (Sigma Chemical Co.), dissolved with ethanol, was topically applied to the anterior and posterior surfaces of the right ear of an ICR-strain male mouse (6–7 weeks old). 6 hours later, the thickness of each ear at the particular part was respectively measured three times using a digimatic micrometer to calculate the mean value. Ear edema was determined by subtracting the mean thickness of the left ear as without treatment from that of the right ear as TPA-applied. Topical application activity was evaluated by applying an acetone solution of the compound of the present invention or 0.1% Tween 80/acetone solution thereof similarly to the anterior and posterior surfaces of the right ear 30 min. before and 15 min. after the TPA-application. […] Oral administration activity was evaluated by administrating 0.2% Tween 80 suspension of the compound of the present invention forcibly and perorally to the mouse an hour prior to the TPA-application. As the positive control, 100 mg/kg of Hydrocortisone (Sigma Chemical Co., H 4001) suspension was applied to the mouse similarly as for the compound of the present invention.

[3] = target: T1, IV-cPLA(2) in activated U937 cells (Homo sapiens, UniProt P47712); experiment: PLA(2) activity: hydrolysis of bis-BODIPY FL C11-PC in TPA/A23187-activated U937 cells; type: cell-based; conditions: U-937
T1 sequence (P47712 1-749): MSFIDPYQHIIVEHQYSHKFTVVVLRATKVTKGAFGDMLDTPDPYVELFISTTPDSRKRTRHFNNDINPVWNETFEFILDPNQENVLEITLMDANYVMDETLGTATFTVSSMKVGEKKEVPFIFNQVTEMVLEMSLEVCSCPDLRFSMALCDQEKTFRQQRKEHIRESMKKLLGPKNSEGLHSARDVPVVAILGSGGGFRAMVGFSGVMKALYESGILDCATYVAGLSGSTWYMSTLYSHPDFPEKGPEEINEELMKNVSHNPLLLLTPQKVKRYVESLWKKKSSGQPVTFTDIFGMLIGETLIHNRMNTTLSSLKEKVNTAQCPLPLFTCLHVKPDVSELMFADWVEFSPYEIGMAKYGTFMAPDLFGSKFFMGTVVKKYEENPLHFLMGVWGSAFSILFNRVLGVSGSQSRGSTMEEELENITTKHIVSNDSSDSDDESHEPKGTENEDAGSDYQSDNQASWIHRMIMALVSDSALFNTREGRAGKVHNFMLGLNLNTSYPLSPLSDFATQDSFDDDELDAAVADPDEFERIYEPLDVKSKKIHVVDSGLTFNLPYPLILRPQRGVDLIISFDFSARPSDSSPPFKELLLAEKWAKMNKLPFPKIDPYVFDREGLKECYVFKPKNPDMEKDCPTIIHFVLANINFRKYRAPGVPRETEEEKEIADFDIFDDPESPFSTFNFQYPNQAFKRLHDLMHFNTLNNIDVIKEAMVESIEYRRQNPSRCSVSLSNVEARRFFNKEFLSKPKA
Protocol: The PLA(2) activity was measured by quantitatively analyzing the fluorescent product of hydrolysis from 1,2-bis-(4,4-difluoro-5,7-dimethyl-4-bora-3a,4a-diaza-s-indecene-3-undecanoyl)-sn-glycero-3-phosphocholine (hereinafter referred to bis-BODIPY®FL C11-PC, Molecular probes, Inc., B-7701) using activated U937 cells (human monoblastic lymphoma cell line) by inflammatory stimulus (Meshulam, T. et al., The journal of Biological Chemistry 267 (30): 21465–21470 (1992); and Solito, E. et al., British Journal of Pharmacology 124: 1675–1683(1998).). The substrate bis-BODIPY®FL C11-PC is incorporated into cellular membranes, the proximity of the BODIPY®FL fluorophores on adjacent phospholipid acyl chains causes fluorescence self-quenching. Separation of the fluorophores upon hydrolytic cleavage of one of the acyl chains by PLA(1) or the PLA(2) results in increased fluorescence. […]
The test compound was dissolved with DMSO at 30 mM, and the solution diluted with either DMSO or the Assay medium before addition into the reaction mixture. […] The increased fluorescence of the hydrolysis product by the enzyme was determined by measuring the fluorescence emission intensity at 535 nm with excitation at 485 nm from the top side of each plate at 37° C., using a Multi Functional Microplate Reader SPECTRA FLUOR PLUS (TECAN Austria GmbH). […]

CC(=O)Oc1ccccc1C(=O)O [Aspirin, aspirin]
Number of writhes (Mean ± S.E.) ([1]; i.p. 30 mg/kg, 30 min before, vehicle i.p. 25.2 ± 2.2): 9.5 ± 2.0
Number of writhes (Mean ± S.E.) ([1]; p.o. 100 mg/kg, 60 min before): 9.5 ± 1.9

COc1ccc2c(c1)c(CC(=O)O)c(C)n2C(=O)c1ccc(Cl)cc1 [Indomethacin, indomethacin]
Number of writhes (Mean ± S.E.) ([1]; i.p. 3 mg/kg, 30 min before, vehicle i.p. 25.2 ± 2.2): 13.8 ± 3.0
Number of writhes (Mean ± S.E.) ([1]; i.p. 10 mg/kg, 30 min before, vehicle i.p. 25.2 ± 2.2): 4.8 ± 0.9
Number of writhes (Mean ± S.E.) ([1]; p.o. 3 mg/kg, 60 min before): 6.8 ± 2.0
intoxicated symptoms ([2]; mice of the TPA ear edema test): showed intoxicated symptoms
body weight after 24 hours ([2]; mice of the TPA ear edema test): reduced
Ear Edema Inhibition (%) ([2]; 3 mg/40 μL/ear × 2): 63.5%

CC(=O)OCC(=O)[C@@]1(O)[C@H](C)C[C@H]2[C@@H]3CCC4=CC(=O)C=C[C@]4(C)[C@@]3(F)[C@@H](O)C[C@@]21C [DEX-Ac, Dexamathasone-21-acetate]
body weight after 24 hours ([2]; mice of the TPA ear edema test): reduced
Ear Edema Inhibition (%) ([2]; 1 mg/20 μL/ear × 2): 79.6%

Cc1ccc(S(=O)(=O)C(C#N)=C2N[C@@H](C)[C@@H](c3ccc(Cl)cc3)O2)cc1 (relative stereo) [Compound 1-41, Cis-5-(4-chlorophenyl)-4-methyl-2-(1-(4-methylphenylsulfonyl)-1-cyanomethylene)-oxazolidine]
Number of writhes (Mean ± S.E.) ([1]; i.p. 1 mg/kg, 30 min before, vehicle i.p. 25.2 ± 2.2): 4.0 ± 1.9
Number of writhes (Mean ± S.E.) ([1]; p.o. 10 mg/kg, 120 min before, vehicle p.o. 23.5 ± 3.1): 1.3 ± 0.8
inhibition at 0.1 µM [3]: 100%
Ear Edema Inhibition (%) ([2]; 1 mg/40 μL/ear × 2): 80.5%
